Experimental findings from patent US12428666B2, “Compositions and methods related to kethoxal derivatives” (The University of Chicago, priority 2018, dated 2025) are described below.

Entries after “also recorded” stand apart in the source; their conditions may differ.

For one data set, the system named is guanine. Briefly: Reaction of N3-kethoxal with RNA nucleic bases and RNA oligos (HPLC, MALDI-TOF). Type of data set: biochemical. As for the experimental part: The reaction of N3-kethoxal and RNA was generally performed with the following protocol: 100 pmol RNA oligo and 1 μmol N3-kethoxal was incubated in total 10 μL solution in PBS buffer at 37° C. for 10 mins. […] The purified labelled RNA can be used for further studies such as mass spectrometry, gel electrophoresis and copper-free click reaction with biotin-DBCO.
MALDI-TOF-MS analysis of N3-kethoxal labelled RNA oligo. […] Meanwhile the buffer exchange occurred from PBS buffer to tris buffer that can be directly used in MALDI-TOF-MS experiment without extra desalt step. One microliter of product solution was mixed with one microliter matrix which include 8:1 volume ratio of 2′4′6′-trihydroxyacetophenone (THAP, 10 mg/mL in 50% CH3CN/H2O):ammonium citrate (50 mg/mL in H2O). Then the mixture was spotted on the MALDI sample plate, dried and analyzed by Bruker Ultraflextreme MALDI-TOF-TOF Mass Spectrometers.
The product of N3-kethoxal with for RNA nucleic bases was analyzed using LC-6AD (Shimadzu, Japan) HPLC instrument, which equipped with an Inertsil ODS-SP column ([…], 250×4.6 mm) (GL Science Inc. Japan). The phase A (100 mM TEAA buffer, pH=7.0) and phase B (CH3CN) were used as eluents with a flow rate of 1 mL/min at 35° C. (B conc.: 5-5-30%/0-5-30 min).

The test system of data set [1] is N3-kethoxal labelled RNA. The data set can be described thus: Reversibility of N3-kethoxal labelled RNA with excess GTP (MALDI-TOF, dot blot). Format: physicochemical. To be noted: for time for almost complete removal of N3-kethoxal modification on labeled RNA: excessive GTP (50 mM). As for the experimental part:
Removal N3-kethoxal modification from N3-kethoxal labelled RNA. The detailed protocol of N3-kethoxal modification erasing is described below “N3-kethoxal-remove sample preparation” in the keth-seq protocol. Generally, the purified N3-kethoxal modified RNA was incubated with high concentration of GTP (½ volume of the reaction solution, final concentration 50 mM) at 37° C. for 6 hours or at 95° C. for 10 mins. Higher temperature benefits the removal the N3-kethoxal modification.

Data set [2] deals with N3-kethoxal labelled RNA. The data set can be described thus: Fixation of N3-kethoxal modification in RNA by borate buffer. Type of data set: physicochemical. To be noted: final concentration 50 mM. As for the experimental part: Fixation of N3-kethoxal modification in RNA. The labile N3-kethoxal modification in RNA can be fixed in the presence of borate buffer. The solution of N3-kethoxal labelled RNA was mixed with 1/10 volume of stock borate buffer (final concentration: 50 mM; stock borate buffer: 500 mM potassium borate, pH 7.0, pH was monitored while adding potassium hydroxide pellets to 500 mM boric acid). The borate buffer fixation was used in various steps of keth-seq protocol, see below.

Data set [3] concerns living mouse embryonic stem cells (mESCs). Briefly: In vivo labeling of living mES cells, dot blot of isolated biotinylated RNA. Format: cell-based. As for the experimental part:
In vivo study: 10 μL N3-kethoxal was added into the cell culture medium in 100 mm cell culture dish with nearly 80% confluent mES cells. After incubation at 37° C. in CO2 incubator for a specific time, the medium was aspirated and the cells were washed three times by PBS. The total RNA was isolated by Trizol™ reagent (Invitrogen, 15596026) or Qiagen RNeasy™ plus mini kit (Qiagen, 74134). mRNA was isolated by Dynabeads™ mRNA DIRECT™ Purification Kit (Invitrogen, 61011). The biotinylation step was same as in vitro study. The biotinylated RNA was purified by RNA clean & concentrator.
Dot blot assay: one microliter RNA (100 ng/uL) sample was spotted onto the Amersham Hybond-N+ membrane (RPN119B, GE Healthcare) and UV crosslinked to the membrane by UVP HL-2000 hybriLinker. The membrane was washed using 1×PBST (0.1% tween-20) and blocked with 5% nonfat dry milk in 1×PBST overnight at 4° C. After four times wash using 1×PBST with ten-minute interval, the streptavidin-horseradish peroxidase (1:15000 dilution, streptavidin-HRP, Life Technologies, S-911) in 1×PBST with 3% BSA was added and incubated at room temperature for 40 mins. Then then membrane was washed using 1×PBST with ten-minute interval again and developed by SuperSignal™ West Pico PLUS Chemiluminescent Substrate (Thermo Scientific, 34577). The membrane was washed by 1×PBST again and stained by methylene blue solution (0.02% methylene blue in 0.3 M sodium Acetate pH 5.2).

The subject of another data set is RNA of mouse ES cells. Briefly: Keth-seq RT stop distribution. Type of data set: cell-based. As for the experimental part: A library was prepared following icSHAPE protocol with slight changes (Spitale et al., Nature 519:486-90, 2015). The detailed protocol is described below. For in vitro library preparation, RNA was isolated and refolded in RNA folding mix buffer firstly (100 mM HEPES, pH 8.0, 100 mM NaCl, 10 mM MgCl2). The refolded RNA was treated with N3-kethoxal and then utilized for library construction. For in vivo study, N3-kethoxal was added into the cultural medium of mES cell and the RNA was isolated to be utilized for library construction.
Sequencing data processing. As the library structure is similar to icSHAPE technique, a similar strategy was used to preprocess the sequencing reads. Pipeline from icSHAPE protocol was used to conduct the data analysis, all the scripts can be accessed at URL github.com/qczhang/icSHAPE. Firstly, script readCollapse.pl was used to collapse the reads with default parameter. […] Enriched reactivity for each transcript was calculated by comparing kethoxal sample (foreground) versus control sample (background) using script calcEnrich.pl (-w factor5:scaling1 -x 0.25). […]

Data set [4] concerns single-strand RNA (ssRNA). The data set can be described thus: Selectivity of N3-kethoxal to ssRNA by denaturing gel electrophoresis. Format: biochemical. The source says:
The complementary RNA oligoes FS1 (5'-[…] NO:1, Fluorescent RNA oligo) and […]

The subject of data set [5] is RNA G-quadruplexes (rG4) in HeLa cell. The data set can be described thus: Keth-seq of rG4 regions with or without PDS treatment. Type of data set: cell-based, human. The note with it: HeLa cell mRNA, 105 regions. As for the experimental part:
The characterization of RNA G-quadruplexes (rG4) in vivo remains challenging. Because of its high specificity towards guanine, the rG4 structure is a good object of N3-kethoxal to probe. It has been reported that PDS treatment can induce the formation of rG4 inside cells based on immunofluorescence imaging. Keth-seq was tested for the ability to identify rG4 structures induced by PDS inside cells. Keth-seq libraries were prepared using mRNA isolated from HeLa cell with or without PDS treatment. Previously identified rG4 structure regions (n=13,423 from in vitro probing) were analyzed in the Keth-seq data, and detected hundreds of regions with potential secondary structure (FIG. 14d). […] As the regions that form rG4 in vivo are more […], their structures were compared in terms of GINI index. […] Two examples were included where the signal in the defined rG4 regions in the PDS sample is lower than that in the control sample (FIG. 7f).

Setting [6] is: 50 mM GTP, neutral buffer, 37° C., MALDI-TOF.

Turning to `CC(OCCN=[N+]=[N-])C(=O)C(O)O` (centres unmarked) [N3-kethoxal, 3-(2-azidoethoxy)-1,1-dihydroxybutan-2-one], the “labelling of RNA oligo (MALDI-TOF molecular weight of product)” value with guanine (12 mer RNA oligo with 4 guanines) was “all guanines (4 guanines) were modified”. Further, the “reaction with four RNA nucleic bases (HPLC)” value with guanine (G, A, C, U) was “can only react with guanine (G) and was inert with A, C, and U”. In the data set on guanine (RNA oligo), the “labeling activity compared with SHAPE reagent NAI” value was “higher labeling activity”. For the same molecule, the “N3-kethoxal modification in mRNA after 10 mins incubation” value in the data set on N3-kethoxal labelled RNA [1] (50 mM GTP, 95° C., dot blot) is “removed thoroughly”. In the data set with N3-kethoxal labelled RNA [1] (setting [6]), the “kethoxal modification after 2 h incubation” value was “largely removed” and the “kethoxal modification after 6 h incubation” value is “almost removed”. Besides, in the data set on N3-kethoxal labelled RNA [1] (37° C.), the “time for almost complete removal of N3-kethoxal modification on labeled RNA” value was not above 6 h. The “time for almost complete removal of N3-kethoxal modification on labeled RNA” value with N3-kethoxal labelled RNA [1] (95° C.) is not above 0.167 h. Besides, the “stability of N3-kethoxal labeled RNA in borate buffer” value in the data set with N3-kethoxal labelled RNA [2] is on record as “stabilized in borate buffer”. Also, in data set [3] (added directly to culture medium of living cells), the cell permeability result was “highly cell-permeable; also recorded: could permeate the living cell efficiently even during one-minute incubation; also recorded: excellent cell permeability”. In addition, in data set [3] (living cells), the “time to label DNA and RNA in living cells” value is reported as not above 5 min. In addition, in data set [3] (mESCs, 1, 5, 10, 15, 20 mins), the “dot blot signal saturation with incubation time” value is given as “saturated within five minutes”. Besides, in the data set on RNA of mouse ES cells (N3-kethoxal sample), the “guanine share of RT-stopped sites among all reads” value is more than 80%. Besides, in the data set on RNA of mouse ES cells (mES cell, 1 min vs 5 mins treatment), the “G-stop sites with treatment time (keth-seq)” value is recorded as “G-stop sites were increased from 1 min to 5 mins”. The “gel shift on double-stranded RNA after incubation” value in data set [4] (double-stranded RNA) was “no such shift was detected”. The “gel shift on single-stranded RNA after incubation” value in data set [4] (single-stranded RNA) is on record as “a shift was observed”.

As for `NCCOc1cc(C(=O)Nc2cc(OCCN)c3ccccc3n2)nc(C(=O)Nc2cc(OCCN)c3ccccc3n2)c1` [PDS], in data set [5], the “GINI index of known rG4 regions vs control sample” value is “higher GINI index than the control sample”.
